Results published in article PMC12195707, “Evaluation of Antitumoral Activity in a 3D Cell Model of a Src Inhibitor Prodrug for Glioblastoma Treatment” (Pharmaceutics, 2025).

Assays:
[1] = PAMPA assay, blood-brain barrier (BBB) membrane
Procedure: (§1) After being first dissolved in DMSO, the compounds were diluted 1:1 v/v using phosphate buffer (PBS 10 mM, pH 7.4). […] The gastrointestinal (GI) and blood–brain barrier (BBB) phospholipidic bilayers were mimicked by covering each well of the filter plate with either a 10%w/v CHCl3/dodecane brain polar lipid solution or a 1%w/v L-α-phosphatidylcholine solution (PC) in dodecane. After placing a DMSO/PBS 1:1v/v combination solution in the acceptor plate, the sandwich was gently shaken and incubated at room temperature for four hours. Samples were collected from the upper and bottom plates at the end time point, and the LC-UV/MS method was used for analysis. As previously reported, the apparent permeability (Papp cm/s × 10^−6) was quantified.

[2] = PAMPA assay, gastrointestinal (GI) membrane; assay type: in vitro ADME; settings: four hours
Procedure: as §1

orthotopic GBM model = test system: orthotopic GBM model; design: method as in PMID 28650650; settings: compared with SI306; cited from earlier work

Row | SMILES | Apparent permeability Papp ([1]; BBB PAMPA, room temperature, four hours) [cm/s × 10^−6] | Membrane retention MR ([1]; PAMPA, 4 h, pH 7.4) [%] | Papp at 4 h ([2]; pH 7.4, room temperature, read-out: Apparent permeability Papp) [×10⁻⁶ cm/s] | Membrane retention MR ([2]; room temperature) [%] | Efficacy in orthotopic GBM model (orthotopic GBM model)
1 | CC(C)NCC(O)COc1cccc2ccccc12 (centres unmarked) [Propranolol, propranolol, reference compound] | 17.16 ± 0.31 | 10.73 ± 1.33 | 19.2 ± 0.37 | 8.89 ± 1.12 | –
2 | CN1CCN(CCOC(=O)N(c2cccc(Br)c2)c2nc(SCCN3CCOCC3)nc3c2cnn3CC(Cl)c2ccccc2)CC1 (centres unmarked) [SI306-PD1] | – | – | – | – | greater efficacy than SI306
